Assay results reported in US20050197350A1, “Novel quinoline, tetrahydroquinazoline, and pyrimidine derivatives and methods of treatment related to the use thereof” (TAISHO PHARMACEUTICAL CO., LTD., priority 2003, published 2005).

Test system: MCH receptors
Assay: MCH receptor activity class (method not given)
Details: class by percent of control at 10^-7 M or IC50

Row | Structure (SMILES) | class
1 | CN(C)c1cc(N[C@H]2CC[C@@H](NC(=O)c3ccccc3CCc3ccccc3)CC2)nc2ccccc12 [compound 732] | 3 (Class 3 The value of percent of control at 10^−7 M was more than 60% or the value of IC50 was more than 200 nM.)
2 | CN(C)c1cc(N[C@H]2CC[C@@H](NC(=O)c3cccc(C(=O)c4ccccc4)c3)CC2)nc2ccccc12 [compound 733] | 3 (Class 3 The value of percent of control at 10^−7 M was more than 60% or the value of IC50 was more than 200 nM.)
3 | CCSC(C(=O)N[C@H]1CC[C@@H](Nc2cc(N(C)C)c3ccccc3n2)CC1)(c1ccccc1)c1ccccc1 [compound 734] | 3 (Class 3 The value of percent of control at 10^−7 M was more than 60% or the value of IC50 was more than 200 nM.)
4 | CN(C)c1cc(N[C@H]2CC[C@@H](NC(=O)c3ccccc3Sc3ccccc3C#N)CC2)nc2ccccc12 [compound 735] | 3 (Class 3 The value of percent of control at 10^−7 M was more than 60% or the value of IC50 was more than 200 nM.)
5 | COc1cc(CC(=O)N[C@H]2CC[C@@H](Nc3cc(N(C)C)c4ccccc4n3)CC2)ccc1OCc1ccccc1 [compound 736] | 3 (Class 3 The value of percent of control at 10^−7 M was more than 60% or the value of IC50 was more than 200 nM.)
6 | C[C@@H](NC(=O)c1ccccc1C(=O)N[C@H]1CC[C@@H](Nc2cc(N(C)C)c3ccccc3n2)CC1)c1cccc2ccccc12 [compound 737] | 3 (Class 3 The value of percent of control at 10^−7 M was more than 60% or the value of IC50 was more than 200 nM.)
7 | C[C@H](C(=O)N[C@H]1CC[C@@H](Nc2cc(N(C)C)c3ccccc3n2)CC1)c1cccc(C(=O)c2ccccc2)c1 [compound 738] | 3 (Class 3 The value of percent of control at 10^−7 M was more than 60% or the value of IC50 was more than 200 nM.)
8 | C[C@@H](c1ccccc1)N(C(=O)c1ccccc1C(=O)N[C@H]1CC[C@@H](Nc2cc(N(C)C)c3ccccc3n2)CC1)[C@@H](C)c1ccccc1 [compound 739] | 3 (Class 3 The value of percent of control at 10^−7 M was more than 60% or the value of IC50 was more than 200 nM.)
9 | C[C@H](C(=O)N[C@H]1CC[C@@H](Nc2cc(N(C)C)c3ccccc3n2)CC1)c1ccc(-c2ccccc2)c(F)c1 [compound 740] | 3 (Class 3 The value of percent of control at 10^−7 M was more than 60% or the value of IC50 was more than 200 nM.)
10 | CN(C)c1cc(N[C@H]2CC[C@@H](NC(=O)CCC(=O)c3cccs3)CC2)nc2ccccc12 [compound 745] | 3 (Class 3 The value of percent of control at 10^−7 M was more than 60% or the value of IC50 was more than 200 nM.)
11 | CN(C)c1cc(N[C@H]2CC[C@@H](NC(=O)CCCc3cccs3)CC2)nc2ccccc12 [compound 746] | 3 (Class 3 The value of percent of control at 10^−7 M was more than 60% or the value of IC50 was more than 200 nM.)
12 | CN(C)c1cc(N[C@H]2CC[C@@H](NC(=O)COc3c(Cl)cc(Cl)cc3Cl)CC2)nc2ccccc12 [compound 747] | 2 (Class 2: The value of percent of control at 10^−7 M was from 40% to 60% or the value of IC′50 was from 50 nM to 200 nM.)
13 | CN(C)c1cc(N[C@H]2CC[C@@H](NC(=O)Cc3c[nH]c4ccc(OCc5ccccc5)cc34)CC2)nc2ccccc12 [compound 748] | 3 (Class 3 The value of percent of control at 10^−7 M was more than 60% or the value of IC50 was more than 200 nM.)
14 | CN(C)c1cc(N[C@H]2CC[C@@H](NC(=O)c3ccccc3C(=O)c3cccc4ccccc34)CC2)nc2ccccc12 [compound 749] | 3 (Class 3 The value of percent of control at 10^−7 M was more than 60% or the value of IC50 was more than 200 nM.)
15 | COc1ccc(C(=O)N[C@H]2CC[C@@H](Nc3cc(N(C)C)c4ccccc4n3)CC2)cc1OCc1ccccc1 [compound 750] | 2 (Class 2: The value of percent of control at 10^−7 M was from 40% to 60% or the value of IC′50 was from 50 nM to 200 nM.)
16 | Cc1c(C(=O)N[C@H]2CC[C@@H](Nc3cc(N(C)C)c4ccccc4n3)CC2)cc(-c2ccccc2)n1-c1ccccc1 [compound 751] | 3 (Class 3 The value of percent of control at 10^−7 M was more than 60% or the value of IC50 was more than 200 nM.)
17 | Cc1c(C(=O)N[C@H]2CC[C@@H](Nc3cc(N(C)C)c4ccccc4n3)CC2)cc(-c2ccccc2)n1CCSCc1c(F)cccc1Cl [compound 752] | 3 (Class 3 The value of percent of control at 10^−7 M was more than 60% or the value of IC50 was more than 200 nM.)
18 | CN(C)c1cc(N[C@H]2CC[C@@H](NC(=O)c3c4ccccc4cc4ccccc34)CC2)nc2ccccc12 [compound 753] | 3 (Class 3 The value of percent of control at 10^−7 M was more than 60% or the value of IC50 was more than 200 nM.)
19 | CN(C)c1cc(N[C@H]2CC[C@@H](NC(=O)c3ccccc3Oc3ccccc3)CC2)nc2ccccc12 [compound 754, N-(cis-4-{[4-(dimethylamino)quinolin-2-yl]amino}cyclohexyl)-2-phenoxybenzamide] | 2 (Class 2: The value of percent of control at 10^−7 M was from 40% to 60% or the value of IC′50 was from 50 nM to 200 nM.)
20 | CN(C)c1cc(N[C@H]2CC[C@@H](NC(=O)c3ccccc3-c3ccccc3)CC2)nc2ccccc12 [compound 755] | 3 (Class 3 The value of percent of control at 10^−7 M was more than 60% or the value of IC50 was more than 200 nM.)
21 | CN(C)c1cc(N[C@H]2CC[C@@H](NC(=O)CC(c3ccccc3)c3ccccc3)CC2)nc2ccccc12 [compound 756] | 3 (Class 3 The value of percent of control at 10^−7 M was more than 60% or the value of IC50 was more than 200 nM.)
22 | CN(C)c1cc(N[C@H]2CC[C@@H](NC(=O)c3cc(-c4ccccc4)nc4ccccc34)CC2)nc2ccccc12 [compound 757, N-(cis-4-{[4-(dimethylamino)quinolin-2-yl]amino}cyclohexyl)-2-phenylquinoline-4-carboxamide] | 2 (Class 2: The value of percent of control at 10^−7 M was from 40% to 60% or the value of IC′50 was from 50 nM to 200 nM.)
23 | C[C@H](NC(=O)c1ccccc1C(=O)N[C@H]1CC[C@@H](Nc2cc(N(C)C)c3ccccc3n2)CC1)c1ccccc1 [compound 758] | 3 (Class 3 The value of percent of control at 10^−7 M was more than 60% or the value of IC50 was more than 200 nM.)
24 | Cc1ccc(C(=O)c2ccccc2C(=O)N[C@H]2CC[C@@H](Nc3cc(N(C)C)c4ccccc4n3)CC2)cc1 [compound 759] | 3 (Class 3 The value of percent of control at 10^−7 M was more than 60% or the value of IC50 was more than 200 nM.)
25 | CN(C)c1cc(N[C@H]2CC[C@@H](NC(=O)c3ccccc3COc3ccccc3)CC2)nc2ccccc12 [compound 760] | 3 (Class 3 The value of percent of control at 10^−7 M was more than 60% or the value of IC50 was more than 200 nM.)
26 | CN(C)c1cc(N[C@H]2CC[C@@H](NC(=O)Cc3sc(-c4ccccc4)nc3-c3ccc(Cl)cc3)CC2)nc2ccccc12 [compound 761] | 3 (Class 3 The value of percent of control at 10^−7 M was more than 60% or the value of IC50 was more than 200 nM.)
27 | Cc1ccc(S(=O)(=O)n2ccc(C(=O)N[C@H]3CC[C@@H](Nc4cc(N(C)C)c5ccccc5n4)CC3)c2)cc1 [compound 762] | 3 (Class 3 The value of percent of control at 10^−7 M was more than 60% or the value of IC50 was more than 200 nM.)
